Assay results as given in patent publication US20260077018A1, “TREATMENT OF MILD TRAUMATIC BRAIN INJURY” (OXEIA BIOPHARMACEUTICALS, INC., priority 2022, published 2026).
No end group written: not given here. *: point of attachment. Octanoyl = CCCCCCCC(=O)*

Legend:
[1] = tested on: persistently symptomatic concussion patients; test: Phase 2 study interim analysis, efficacy endpoints overall; assay type: in vivo, human
Method: A Phase 2 study of treatment of persistently symptomatic concussion patients with ghrelin (OXE-103) was undertaken at the University of Kansas Medical Center generally as described in Example 1. The interim results are reported herein (FIG. 1).
A study to treat patients with sub-acute concussion using a pharmaceutical formulation of ghrelin (OXE-103) was performed. The completed results from treatment group of 10 patients were compared to a 3 patient placebo group receiving standard of care (SoC). Additionally, two other patients are currently undergoing the treatment arm of the study at the time of the interim report. The study was performed in a randomized, double blind fashion and compared using self-report symptom scoring, quality of life questionnaires, computerized cognitive testing assessing executive function, memory and processing speed, and accelerometer-based balance scoring.
Efficacy endpoints for the interim study were: PCSS—22 symptom concussion scoring scale, QOLIBRI—WHO TBI specific Quality of Life after Brain Injury, and BRAIN CHECK—digital assessment of cognition, balance, visual changes (510K FDA approved).
Feedback from clinicians indicated a 20% decrease in concussion symptoms would be considered clinically significant improvement. Graphs of QOLIBRI (FIG. 3A), PCSS—total severity score (FIG. 4A), PGAS (FIG. 5A), 4MB3S (FIG. 6A), and PCSS number of symptoms (FIG. 7A) show a black line for 20% change from baseline. The graphs in FIGS. 3A, 4A, 5A, 6A, and 7A show average scores per time point for each endpoint at days 1, 4, 8, 11, 15, 21 and 44 for both the treatment and control (SoC) arms. For PCSS, number of symptoms, PGAS, and 4MBS, a patient is considered to have responded to treatment if percent change is less than or equal to −20% compared to baseline. For QOLIBRI, a patient is considered to have responded to treatment if percent change is greater than or equal to 20% compared to baseline.

[2] = in vivo; cited from earlier work

ghrelin (GSS(Octanoyl)FLSPEHQRVQQRKESKKPPAKLQPR; UniProt Q9UBU3 24-51, looked up) [OXE-103]
durability of treatment effects ([1]; across study endpoints): at least 44 days | Responder Rate (RR) ([1]; both endpoints, by 40 days after start of treatment): 80% | onset of treatment effect ([1]; persistently effected population): 8 to 10 days | improvement ([1]; within 8-10 days of treatment, interim time point): greater than 20% | effects of long term use [2]: increased appetite, weight gain, and adiposity | safety in previous studies [2]: quite safe
